# Test system: M. tuberculosis H37Rv growth inhibition
# Test: Mycobacterium tuberculosis H37Rv growth inhibition, putative kinase inhibitor library, confirmatory dose response (AID 2842);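 also: bacteria incubated one week before Alamar blue readout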
row,SMILES,IC90
1,Cc1ccc(C)c(-c2nnc(NC(=O)c3cccc4ccccc34)o2)c1,0.41 mg/L
2,C=CCOC(=O)COc1ccc2c(-c3cc4ccccc4oc3=O)cc(=O)oc2c1,4.35 mg/L
3,COc1ccc(-c2nc(NC(=O)c3cccc(C)c3)sc2C)cc1,5.78 mg/L
4,O=C(Nc1nnc(-c2ccncc2)o1)c1cc(Cl)ccc1Cl,6.58 mg/L
5,O=C(Nc1nnc(-c2ccccc2Cl)o1)c1nc2ccccc2s1,1.75 mg/L
6,O=c1cnnc(N/N=C/c2c(O)ccc3ccccc23)[nH]1,< 0.2 mg/L
7,CSc1nnc(C)c(=O)n1COC(=O)/C=C/c1ccc2c(c1)OCO2,11.2 mg/L
8,CCOc1ccc(C(=O)Nc2nnc(-c3ccccn3)o2)cc1,1.03 mg/L
9,Cc1ccc(-n2ncc3c(=O)n(CC(=O)Nc4ccc([N+](=O)[O-])cc4)cnc32)cc1,6.91 mg/L
10,O=C(Nc1nnc(-c2ccc3c(c2)CCCC3)o1)c1ccco1,0.87 mg/L
11,CC(C)(C)C(=O)Nc1nnc(-c2cc(Cl)ccc2Cl)o1,< 0.2 mg/L
12,COc1ccc2nc(NNC(=O)c3cc4ccccc4oc3=O)sc2c1,30.8 mg/L
13,O=C(Nc1nnc(-c2cc(Cl)ccc2Cl)o1)c1ccccc1Cl,1.66 mg/L
14,COc1ccccc1-c1nc(C(N)=O)c2[nH]c(=O)n(-c3ccc(C(C)(C)C)cc3)c2n1,9.91 mg/L
15,O=C(Nc1nnc(-c2ccc(Br)cc2)o1)c1ccc2c(c1)CCCC2,16.8 mg/L
16,COC(=O)c1ccc(NC(=O)CSc2nc(-c3ccccc3C)ns2)cc1,0.79 mg/L
17,O=C(Nc1nnc(-c2cccnc2)o1)c1cc(Cl)ccc1Cl,27.9 mg/L
18,COc1ccc2nc(Nc3nc4c(OC)cccc4s3)sc2c1,3.38 mg/L
19,c1ccc(-c2csc(Nc3nc4cc5c(cc4s3)OCO5)n2)nc1,1.79 mg/L
20,O=Nc1c(-c2ccccc2)cc2ccccn12,3.32 mg/L
21,Cc1c(Cl)ccc2sc(N(CCCn3ccnc3)C(=O)COc3ccccc3)nc12,3.05 mg/L
22,COC(=O)c1c(NC(=O)Cc2cccc3ccccc23)sc2c1CC(C)(C)NC2(C)C,3.73 mg/L
23,Cc1ccc(Nc2nc(N3CCN(Cc4ccccc4)CC3)nc3nccnc23)cc1,7.94 mg/L
24,CCc1cccc(OCC(O)Cn2c(NCc3ccccc3)nc3c2c(=O)[nH]c(=O)n3C)c1 (configuration not stated),22.1 mg/L

row,SMILES,IC90
1,CCCCOc1cccc(C(=O)Nc2nnc(-c3cc(C)ccc3C)o2)c1,12.4 mg/L
2,COc1ccc(-c2nnc(NC(=O)c3ccccc3F)o2)cc1,66.9 mg/L
3,CC(C)(C)c1ccc(C(=O)Nc2nnc(-c3ccc(S(C)(=O)=O)cc3)o2)cc1,24.6 mg/L
4,O=C(Nc1ncc(Cc2cccc(C(F)(F)F)c2)s1)c1cccs1,2.92 mg/L
5,CC(C)(C)C(=O)Nc1nnc(C2=COCCO2)o1,48.6 mg/L
6,Cc1cc(C)c2sc(NNC(=O)c3nc4ccccc4s3)nc2c1,15.5 mg/L
7,COc1cccc(NC(=O)C2C(=O)CN(c3ccccc3)C2=O)c1 (configuration not stated),4.41 mg/L
8,COc1ccc(OC)c2sc(N(CCCn3ccnc3)C(=O)c3ccc(F)cc3)nc12,13.5 mg/L
9,CCOC(=O)C(C)Sc1ncnc2c1nnn2Cc1ccc(F)cc1 (configuration not stated),0.51 mg/L
10,Cc1ccc(-n2ccnc(NCC(C)c3ccccc3)c2=O)cc1C (configuration not stated),18.1 mg/L
11,COc1ccc2nc(Nc3nc(C(C)(C)C)cs3)sc2c1,10.1 mg/L
12,O=C(NNc1nc2c(F)cc(F)cc2s1)c1nc2ccccc2s1,21.8 mg/L
13,CCCC(=O)Nc1nnc(-c2ccccc2)o1,22 mg/L
14,COc1cccc(Cn2cc3c(-c4ccc(Cl)cc4)nnc-3c3cc(OC)c(OC)cc32)c1,15.2 mg/L
15,Cc1ccc2sc(N(CCCn3ccnc3)C(=O)c3ccco3)nc2c1C,0.58 mg/L
16,CC(C)OC(=O)COc1ccc2cc(-c3ccccc3)c(=O)oc2c1,2.97 mg/L
17,CCCCOc1ccc(C(=O)Nc2nnc(-c3ccncc3)o2)cc1,3.42 mg/L
18,O=C(Nc1nc2c(s1)CCCC2)c1ccc(Cc2ccccc2)cc1,7.01 mg/L
19,Cc1nc2c(ccc3nc(NC(=O)Cc4ccccc4)sc32)s1,2.92 mg/L
20,O=C(Nc1nnc(-c2ccco2)o1)c1cccc(C(F)(F)F)c1,< 0.2 mg/L
21,O=C(Nc1nnc(-c2ccc3c(c2)OCCO3)o1)c1nc2ccccc2s1,25.8 mg/L
22,COc1cccc(C(=O)Nc2nnc(-c3ccc(C)cc3C)o2)c1,20.8 mg/L
23,CSc1ccccc1-c1nnc(NC(=O)c2cc(Cl)ccc2Cl)o1,0.98 mg/L
24,CCN1CCc2c(sc(NC(=O)c3ccc([N+](=O)[O-])o3)c2C(N)=O)C1,6.91 mg/L

row,SMILES,IC90
1,O=C(CCOc1ccccc1)Nc1nnc(-c2ccc3c(c2)CCCC3)o1,18.1 mg/L
2,COc1ccc(-c2nnc(NC(=O)c3ccc(Cl)cc3Cl)o2)cc1,14.1 mg/L
3,COc1ccc(-c2nsc(SCC(=O)NCc3ccco3)n2)cc1,< 0.2 mg/L
4,CCOC(=O)c1ccc2nc(Nc3nc4cc5c(cc4s3)OCO5)sc2c1,34.8 mg/L
5,COc1ccc(C(=O)Nc2nnc(-c3ccc(C)cc3C)o2)cc1,23.6 mg/L
6,Cc1ccc(-c2nnc(NC(=O)c3ccccc3C)o2)c(C)c1,2.52 mg/L
7,Cc1cccc2sc(NNC(=O)c3cccc(F)c3)nc12,9.09 mg/L
8,COc1ccc(C)c2sc(NNC(=O)c3cccc(F)c3)nc12,32.6 mg/L
9,Cc1ccc(-c2nnc(NC(=O)c3ccc(S(=O)(=O)N(C)C)cc3)o2)c(C)c1,41.1 mg/L
10,O=C(Nc1nnc(C2=COCCO2)o1)c1ccc2c(c1)CCCC2,0.44 mg/L
11,O=C(OC1CCCCC1)c1cc2ccccc2oc1=O,49 mg/L
12,CN(C)S(=O)(=O)c1ccc(C(=O)Nc2nnc(-c3ccc(Br)cc3)o2)cc1,6.69 mg/L
13,Cc1cccc(C(=O)Nc2nnc(-c3cc(C)ccc3C)o2)c1,3.39 mg/L
14,COc1cc2ccccc2cc1C(=O)Nc1nnc(-c2cc(C)ccc2C)o1,1.23 mg/L
15,CC(C)c1ccc(-c2csc(NC(=O)c3ccc4c(c3)OCCO4)n2)cc1,3.39 mg/L
16,CCN(c1ccccc1)S(=O)(=O)c1ccc(C(=O)Nc2ccc3ncsc3c2)cc1,14.7 mg/L
17,Cc1ccc(C)c(-c2nnc(NC(=O)c3ccc(Cl)cc3)o2)c1,22.7 mg/L
18,CCN1C(=O)CCc2cc(NS(=O)(=O)c3ccc(OCC(C)C)cc3)ccc21,18.3 mg/L
19,COC(=O)COc1cccc(/C=C2\Oc3cc(OC)ccc3C2=O)c1,17.3 mg/L
20,COC(=O)c1c(C)oc2ccc(OCC(=O)OC(C)C)cc12,7.05 mg/L
21,C=CCOC(=O)COc1ccc2cc(-c3ccc(OC)cc3)c(=O)oc2c1,3.58 mg/L
22,O=C(Nc1nnc(-c2ccc(F)cc2)o1)c1ccc(Cl)cc1,18.3 mg/L
23,O=C(Nc1nnc(-c2ccc3c(c2)CCCC3)o1)c1ccccc1F,0.93 mg/L
24,N#Cc1ccccc1NC(=O)C(=O)NCCSc1ncc(-c2ccccc2)[nH]1,4.48 mg/L

row,SMILES,IC90
1,O=C(Nc1nnc(-c2ccc(Cl)cc2)o1)c1ccccc1F,0.72 mg/L
2,COc1cc(C(=O)Nc2nnc(-c3cc(Cl)ccc3Cl)o2)cc(OC)c1OC,28.3 mg/L
3,Cc1ccc(Cl)cc1N1CCN(CCn2c(C)c(C)n3c4c(=O)[nH]c(=O)n(C)c4nc23)CC1,49.7 mg/L
4,O=C(Cc1cccc2ccccc12)Nc1nnc(-c2ccc(F)cc2)o1,22.4 mg/L
5,CSc1cccc2sc(Nc3ccc(Cl)cc3)nc12,2.31 mg/L
6,Cc1ccc(-n2ncc3c(NCc4cccnc4)ncnc32)cc1C,6.03 mg/L
7,Cc1ccc(Nc2nc(N3CCN(Cc4ccccc4)CC3)nc3nccnc23)cc1Cl,2.67 mg/L
8,Cc1ccc(C)c(-c2nnc(NC(=O)c3ccc(OC(C)C)cc3)o2)c1,33.4 mg/L
9,O=C(Nc1nnc(-c2ccco2)o1)c1ccc([N+](=O)[O-])cc1,35.8 mg/L
10,Cc1ccc2nc(N(CCCn3ccnc3)C(=O)c3ccco3)sc2c1,0.48 mg/L
11,Nc1ncnc(Sc2nc3ccccc3[nH]2)c1[N+](=O)[O-],17.1 mg/L
12,Cc1c(Cl)ccc2sc(N(CCCn3ccnc3)C(=O)c3ccco3)nc12,0.23 mg/L
13,O=C(CCOc1ccccc1)Nc1nnc(-c2ccccc2)o1,6.68 mg/L
14,COc1ccc(C)c2sc(NNC(=O)c3ccccc3)nc12,4.03 mg/L
15,Cc1ccc(CC(=O)Nc2nnc(-c3ccco3)o2)c(C)c1,17.9 mg/L
16,CCOC(=O)N1CCc2c(sc(NC(=O)CCOc3ccccc3)c2C(N)=O)C1,12.4 mg/L
17,O=C(CS(=O)(=O)c1ccccc1)Nc1cccc2c1C(=O)c1ccccc1C2=O,20.9 mg/L
18,CCOc1ccc2nc(N3CCCC3)sc2c1,17.2 mg/L
19,COc1ccc(C2CC(c3c(-c4ccccc4)c4cc(Br)ccc4[nH]c3=O)=NN2C(=O)c2ccccc2)cc1 (configuration not stated),1.07 mg/L
20,O=c1[nH]c(N/N=C/c2cccs2)nnc1-c1ccccc1,21.6 mg/L
21,CCOc1ccc2nc(Nc3nc4ccc(NC(C)=O)cc4s3)sc2c1,7.84 mg/L
22,CCCCc1ccc2[nH]cc(C(=O)O)c(=O)c2c1,14.5 mg/L
23,COc1ccc(-c2nnc3c4cc(OC)ccc4n(Cc4ccccc4F)cc2-3)cc1,9.08 mg/L
24,O=C(CSc1n[nH]c(=O)[nH]c1=O)c1ccccc1,12.1 mg/L

row,SMILES,IC90
1,COc1ccc(-c2nnc3c4cc(OC)c(OC)cc4n(Cc4ccccc4OC)cc2-3)cc1,5.67 mg/L
2,O=C(CSc1nnc(-c2ccncc2)o1)N1CCCCC1,14.2 mg/L
3,CCCC(=O)Nc1nnc(-c2cc(C)ccc2C)o1,2.09 mg/L
4,c1c2c(cc3sc(N4CCCC4)nc13)OCO2,< 0.2 mg/L
5,O=C(NNc1nc2c(F)cccc2s1)c1cc2ccccc2oc1=O,8.19 mg/L
6,O=C(Cc1ccccc1)Nc1nnc(-c2ccc(Cl)cc2)o1,14.1 mg/L
7,CS(=O)(=O)c1ccc(CC(=O)Nc2nnc(-c3ccc4c(c3)CCCC4)o2)cc1,13.9 mg/L
8,O=C(Nc1nnc(C2=COCCO2)o1)c1ccc(-c2ccccc2)cc1,8.24 mg/L
9,O=C(Nc1nnc(-c2cc(Cl)ccc2Cl)o1)c1ccc(Br)s1,2.65 mg/L
10,CCOc1cc(-c2nnc(NC(=O)c3cc4ccccc4cc3OC)o2)cc(OCC)c1OCC,2.68 mg/L
11,Cc1ccc2nc(N(CCCn3ccnc3)C(=O)c3cccs3)sc2c1,1.73 mg/L
12,Cc1ccc(-c2nnc(NC(=O)c3cccc(Oc4ccccc4)c3)o2)c(C)c1,25.3 mg/L
13,CCc1ccc(-c2ccc(SCC(N)=O)nn2)cc1,4.66 mg/L
14,O=c1c2[nH]c3ccccc3c2nc(SCCN2CCCCC2)n1-c1ccccc1F,14.6 mg/L
15,COc1ccccc1C(=O)Nc1nnc(-c2ccc(F)cc2)o1,34.9 mg/L
16,COc1ccc(C(=O)/C=C2\C(=O)Nc3ccccc32)cc1,38.6 mg/L
17,Cc1ccc(/C(O)=C2\C(=O)C(=O)N(c3ccccn3)C2c2cccc(Br)c2)cc1 (configuration not stated),21.4 mg/L
18,O=C(/C=C/c1ccc(-c2ccccc2[N+](=O)[O-])o1)c1cccs1,13 mg/L
19,Cc1ccc(C)c(-c2nnc(NC(=O)c3ccc(C#N)cc3)o2)c1,23.1 mg/L
20,CCS(=O)(=O)c1ccc(C(=O)Nc2nnc(-c3ccc(Br)cc3)o2)cc1,24.6 mg/L
21,CCOc1cccc2sc(N(CCCn3ccnc3)C(=O)Cc3ccc(F)cc3)nc12,4.84 mg/L

# From PubChem BioAssay AID2842 (Southern Research Institute, 2010)
